Assay results as given in patent publication US20260098017A1, “NOVEL AROMATIC RING DERIVATIVE CONTAINING AMIDE SUBSTITUTION AND USE THEREOF” (TIANJIN PHARMACEUTICAL BIOTECHNOLOGY CO., LTD., priority 2022, published 2026).

Target: Ba/F3 cell line expressing TYK2 (Homo sapiens, UniProt P29597, cells depend on it, form not given)
Assay: In vitro cellular inhibition assay (Ba/F3 cell proliferation, CellTiter-Glo)
Type: cell-based
Settings: read-out: IC50 (the source's name)
Protocol: The inhibitory effect of the compounds of formula (I) according to the present invention on the TYK2 signaling pathway in cells was assessed using the following method:
Instrumentation: SpectraMax Paradigm reader.
Method: in this experiment, a Ba/F3 cell line expressing TYK2 was employed to assess the effect of the compounds on cell proliferation inhibition by measuring their effects on cell activity in vitro.
Procedure: a CellTiter-Glo buffer was thawed and placed aside till room temperature. A CellTiter-Glo substrate was placed aside till room temperature and dissolved with the buffer to prepare a CellTiter-Glo working solution. To a 96-well flat bottom transparent drug plate, 98 μL of cell culture medium and 2 μL of gradient diluted compound solution were added. The drug plate was placed aside for 10 min, and then 50 μL of the CellTiter-Glo working solution was added. The drug plate was subsequently shaken on an orbital shaker for 2 min and placed aside at room temperature for an additional 10 min. Finally, the luminescence signal was measured on the SpectraMax Paradigm reader.
Data Analysis: the cell proliferation inhibition rate data were processed using the following formula:
Inhibition Rate (Inh %)=100−(RLUDrug−RLUMin)/(RLUMax−RLUMin)×100%.
The inhibition rates of compounds with different concentrations were calculated in EXCEL, and then GraphPad Prism software was employed to plot inhibition rate curve and calculate relevant parameters, including maximum and minimum cell inhibition rates, IC50 values.

Compound	GI50 [nM]
[2H]C([2H])([2H])NC(=O)c1nnc(NC(=O)C2CC2)cc1Nc1cccc(C(=O)Nc2ccccc2)c1OC [Example 1]	5 to 10
[2H]C([2H])([2H])NC(=O)c1nnc(NC(=O)C2CC2)cc1Nc1cccc(C(=O)Nc2cccc(F)c2)c1OC [Example 6]	5 to 10
[2H]C([2H])([2H])NC(=O)c1nnc(NC(=O)C2CC2)cc1Nc1cccc(C(=O)Nc2ccccc2F)c1OC [Example 7]	5 to 10
[2H]C([2H])([2H])NC(=O)c1nnc(NC(=O)C2CC2)cc1Nc1cccc(C(=O)Nc2cccc(C)c2C)c1OC [Example 8]	5 to 10
[2H]C([2H])([2H])NC(=O)c1nnc(NC(=O)C2CC2)cc1Nc1cccc(C(=O)Nc2cc(C)cc(C)c2)c1OC [Example 9]	5 to 10
[2H]C([2H])([2H])NC(=O)c1nnc(NC(=O)C2CC2)cc1Nc1cccc(C(=O)Nc2ccccc2C)c1OC [Example 10]	5 to 10
[2H]C([2H])([2H])NC(=O)c1nnc(NC(=O)C2CC2)cc1Nc1cccc(C(=O)Nc2cccc(C3CC3)c2)c1OC [Example 11]	5 to 10
[2H]C([2H])([2H])NC(=O)c1nnc(NC(=O)C2CC2)cc1Nc1cccc(C(=O)Nc2cccc(C(F)(F)F)c2)c1OC [Example 12]	5 to 10
[2H]C([2H])([2H])NC(=O)c1nnc(NC(=O)C2CC2)cc1Nc1cccc(C(=O)Nc2cccc(CC)c2)c1OC [Example 13]	5 to 10
[2H]C([2H])([2H])NC(=O)c1nnc(NC(=O)C2CC2)cc1Nc1cccc(C(=O)Nc2cccc(OC)c2)c1OC [Example 14]	5 to 10
[2H]C([2H])([2H])NC(=O)c1nnc(NC(=O)C2CC2)cc1Nc1cccc(C(=O)Nc2cccc(C#N)c2)c1OC [Example 15]	5 to 10
[2H]C([2H])([2H])NC(=O)c1nnc(NC(=O)C2CC2)cc1Nc1cccc(C(=O)Nc2cccc(C(C)C)c2)c1OC [Example 16]	5 to 10
[2H]C([2H])([2H])NC(=O)c1nnc(NC(=O)C2CC2)cc1Nc1cccc(C(=O)Nc2cccc(C(C)(C)C)c2)c1OC [Example 17]	5 to 10
[2H]C([2H])([2H])NC(=O)c1nnc(NC(=O)C2CC2)cc1Nc1cccc(C(=O)Nc2ccc(CC)cc2)c1OC [Example 18]	5 to 10
[2H]C([2H])([2H])NC(=O)c1nnc(NC(=O)C2CC2)cc1Nc1cccc(C(=O)Nc2ccc(C3CC3)cc2)c1OC [Example 19]	5 to 10
[2H]C([2H])([2H])NC(=O)c1nnc(NC(=O)C2CC2)cc1Nc1cccc(C(=O)Nc2ccc(C(C)C)cc2)c1OC [Example 20]	5 to 10
[2H]C([2H])([2H])NC(=O)c1nnc(NC(=O)C2CC2)cc1Nc1cccc(C(=O)Nc2ccc(C(C)(C)C)cc2)c1OC [Example 21]	5 to 10
[2H]C([2H])([2H])NC(=O)c1nnc(NC(=O)C2CC2)cc1Nc1cccc(C(=O)Nc2ccc(C(F)(F)F)cc2)c1OC [Example 22]	5 to 10
[2H]C([2H])([2H])NC(=O)c1nnc(NC(=O)C2CC2)cc1Nc1cccc(C(=O)Nc2ccc(C#N)cc2)c1OC [Example 23]	5 to 10
[2H]C([2H])([2H])NC(=O)c1nnc(NC(=O)C2CC2)cc1Nc1cccc(C(=O)Nc2ccc(OC)cc2)c1OC [Example 24]	5 to 10
[2H]C([2H])([2H])NC(=O)c1nnc(NC(=O)C2CC2)cc1Nc1cccc(C(=O)Nc2ccc(CC)c(C)c2)c1OC [Example 25]	5 to 10
[2H]C([2H])([2H])NC(=O)c1nnc(NC(=O)C2CC2)cc1Nc1cccc(C(=O)Nc2ccc(C3CC3)c(C)c2)c1OC [Example 26]	5 to 10
[2H]C([2H])([2H])NC(=O)c1nnc(NC(=O)C2CC2)cc1Nc1cccc(C(=O)Nc2ccc(C(C)C)c(C)c2)c1OC [Example 27]	5 to 10
[2H]C([2H])([2H])NC(=O)c1nnc(NC(=O)C2CC2)cc1Nc1cccc(C(=O)Nc2ccc(C(C)(C)C)c(C)c2)c1OC [Example 28]	5 to 10
[2H]C([2H])([2H])NC(=O)c1nnc(NC(=O)C2CC2)cc1Nc1cccc(C(=O)Nc2ccc(C(F)(F)F)c(C)c2)c1OC [Example 29]	5 to 10
[2H]C([2H])([2H])NC(=O)c1nnc(NC(=O)C2CC2)cc1Nc1cccc(C(=O)Nc2ccc(C#N)c(C)c2)c1OC [Example 30]	5 to 10
[2H]C([2H])([2H])NC(=O)c1nnc(NC(=O)C2CC2)cc1Nc1cccc(C(=O)Nc2ccc(OC)c(C)c2)c1OC [Example 31]	5 to 10
[2H]C([2H])([2H])NC(=O)c1nnc(NC(=O)C2CC2)cc1Nc1cccc(C(=O)Nc2ccc(F)c(C)c2)c1OC [Example 32]	5 to 10
[2H]C([2H])([2H])NC(=O)c1nnc(NC(=O)C2CC2)cc1Nc1cccc(C(=O)Nc2ccn(C)n2)c1OC [Example 33]	5 to 10
[2H]C([2H])([2H])NC(=O)c1nnc(NC(=O)C2CC2)cc1Nc1cccc(C(=O)Nc2cn(C)cn2)c1OC [Example 35]	5 to 10

The remaining lines, values ahead:

GI50 [nM]	Compound
5 to 10	[2H]C([2H])([2H])NC(=O)c1nnc(NC(=O)C2CC2)cc1Nc1cccc(C(=O)Nc2ncn(C)n2)c1OC [Example 36]
5 to 10	[2H]C([2H])([2H])NC(=O)c1nnc(NC(=O)C2CC2)cc1Nc1cccc(C(=O)Nc2cc(C)ccn2)c1OC [Example 37]
5 to 10	[2H]C([2H])([2H])NC(=O)c1nnc(NC(=O)C2CC2)cc1Nc1cccc(C(=O)Nc2ccnc(C)c2)c1OC [Example 39]
5 to 10	[2H]C([2H])([2H])NC(=O)c1nnc(NC(=O)C2CC2)cc1Nc1cccc(C(=O)Nc2cccc(C)n2)c1OC [Example 40]
5 to 10	[2H]C([2H])([2H])NC(=O)c1nnc(NC(=O)C2CC2)cc1Nc1cccc(C(=O)Nc2ncc(F)cn2)c1OC [Example 41]
5 to 10	[2H]C([2H])([2H])NC(=O)c1nnc(NC(=O)C2CC2)cc1Nc1cccc(C(=O)Nc2ccc(C)cn2)c1OC [Example 43]
5 to 10	[2H]C([2H])([2H])NC(=O)c1nnc(NC(=O)C2CC2)cc1Nc1cccc(C(=O)Nc2ccc(C)nc2)c1OC [Example 44]
5 to 10	[2H]C([2H])([2H])NC(=O)c1nnc(NC(=O)C2CC2)cc1Nc1cccc(C(=O)Nc2ncc(C)cn2)c1OC [Example 45]
5 to 10	[2H]C([2H])([2H])NC(=O)c1nnc(NC(=O)C2CC2)cc1Nc1cccc(C(=O)Nc2ccc(F)nc2)c1OC [Example 46]
5 to 10	[2H]C([2H])([2H])NC(=O)c1nnc(NC(=O)C2CC2)cc1Nc1cccc(C(=O)Nc2cnc(F)nc2)c1OC [Example 47]
5 to 10	[2H]C([2H])([2H])NC(=O)c1nnc(NC(=O)C2CC2)cc1Nc1cccc(C(=O)Nc2ccccn2)c1OC [Example 48]
5 to 10	[2H]C([2H])([2H])NC(=O)c1nnc(NC(=O)C2CC2)cc1Nc1cccc(C(=O)Nc2cccnc2)c1OC [Example 49]
5 to 10	[2H]C([2H])([2H])NC(=O)c1nnc(NC(=O)C2CC2)cc1Nc1cccc(C(=O)Nc2ccncc2)c1OC [Example 50]
5 to 10	[2H]C([2H])([2H])NC(=O)c1nnc(NC(=O)C2CC2)cc1Nc1cccc(C(=O)Nc2ncccn2)c1OC [Example 51]
5 to 10	[2H]C([2H])([2H])NC(=O)c1nnc(NC(=O)C2CC2)cc1Nc1cccc(C(=O)Nc2cncnc2)c1OC [Example 52]
5 to 10	[2H]C([2H])([2H])NC(=O)c1cnc(NC(=O)C2CC2)cc1Nc1cccc(C(=O)Nc2ccccc2)c1OC [Example 53]
5 to 10	[2H]C([2H])([2H])NC(=O)c1cnc(NC(=O)C2CC2)cc1Nc1cccc(C(=O)Nc2ccccc2C)c1OC [Example 56]
5 to 10	[2H]C([2H])([2H])NC(=O)c1cnc(NC(=O)C2CC2)cc1Nc1cccc(C(=O)Nc2cccc(F)c2)c1OC [Example 58]
5 to 10	[2H]C([2H])([2H])NC(=O)c1cnc(NC(=O)C2CC2)cc1Nc1cccc(C(=O)Nc2ccccc2F)c1OC [Example 59]
5 to 10	[2H]C([2H])([2H])NC(=O)c1cnc(NC(=O)C2CC2)cc1Nc1cccc(C(=O)Nc2cccc(C)c2C)c1OC [Example 60]
5 to 10	[2H]C([2H])([2H])NC(=O)c1cnc(NC(=O)C2CC2)cc1Nc1cccc(C(=O)Nc2cc(C)cc(C)c2)c1OC [Example 61]
5 to 10	[2H]C([2H])([2H])NC(=O)c1cnc(NC(=O)C2CC2)cc1Nc1cccc(C(=O)Nc2cccc(C3CC3)c2)c1OC [Example 63]
5 to 10	[2H]C([2H])([2H])NC(=O)c1cnc(NC(=O)C2CC2)cc1Nc1cccc(C(=O)Nc2cccc(C(F)(F)F)c2)c1OC [Example 64]
5 to 10	[2H]C([2H])([2H])NC(=O)c1cnc(NC(=O)C2CC2)cc1Nc1cccc(C(=O)Nc2cccc(CC)c2)c1OC [Example 65]
5 to 10	[2H]C([2H])([2H])NC(=O)c1cnc(NC(=O)C2CC2)cc1Nc1cccc(C(=O)Nc2cccc(OC)c2)c1OC [Example 66]
5 to 10	[2H]C([2H])([2H])NC(=O)c1cnc(NC(=O)C2CC2)cc1Nc1cccc(C(=O)Nc2cccc(C#N)c2)c1OC [Example 67]
5 to 10	[2H]C([2H])([2H])NC(=O)c1cnc(NC(=O)C2CC2)cc1Nc1cccc(C(=O)Nc2cccc(C(C)C)c2)c1OC [Example 68]
5 to 10	[2H]C([2H])([2H])NC(=O)c1cnc(NC(=O)C2CC2)cc1Nc1cccc(C(=O)Nc2cccc(C(C)(C)C)c2)c1OC [Example 69]
5 to 10	[2H]C([2H])([2H])NC(=O)c1cnc(NC(=O)C2CC2)cc1Nc1cccc(C(=O)Nc2ccc(CC)cc2)c1OC [Example 70]
